The source made the active and inactive calls. No cut-off for these calls is given here.
Columns and labels:
Histone deacetylase 3 [1] = target: T1, Histone deacetylase 3 (Homo sapiens, UniProt O15379); experiment: Inhibition of human recombinant HDAC3 expressed in baculovirus infected insect High5 cells using Ac-Lys-Tyr-Lys(epsilon-acetyl)-AMC as substrate at 20 ug/ml by fluorescence assay
[2] = target: T2, Protein deacetylase HDAC6 (Homo sapiens) (UniProt Q9UBN7); experiment: Inhibition of human recombinant HDAC6 expressed in baculovirus infected insect High5 cells using Boc-Lys(epsilon-acetyl)-AMC as substrate at 20 ug/ml by fluorescence assay
T2 sequence (whole entry): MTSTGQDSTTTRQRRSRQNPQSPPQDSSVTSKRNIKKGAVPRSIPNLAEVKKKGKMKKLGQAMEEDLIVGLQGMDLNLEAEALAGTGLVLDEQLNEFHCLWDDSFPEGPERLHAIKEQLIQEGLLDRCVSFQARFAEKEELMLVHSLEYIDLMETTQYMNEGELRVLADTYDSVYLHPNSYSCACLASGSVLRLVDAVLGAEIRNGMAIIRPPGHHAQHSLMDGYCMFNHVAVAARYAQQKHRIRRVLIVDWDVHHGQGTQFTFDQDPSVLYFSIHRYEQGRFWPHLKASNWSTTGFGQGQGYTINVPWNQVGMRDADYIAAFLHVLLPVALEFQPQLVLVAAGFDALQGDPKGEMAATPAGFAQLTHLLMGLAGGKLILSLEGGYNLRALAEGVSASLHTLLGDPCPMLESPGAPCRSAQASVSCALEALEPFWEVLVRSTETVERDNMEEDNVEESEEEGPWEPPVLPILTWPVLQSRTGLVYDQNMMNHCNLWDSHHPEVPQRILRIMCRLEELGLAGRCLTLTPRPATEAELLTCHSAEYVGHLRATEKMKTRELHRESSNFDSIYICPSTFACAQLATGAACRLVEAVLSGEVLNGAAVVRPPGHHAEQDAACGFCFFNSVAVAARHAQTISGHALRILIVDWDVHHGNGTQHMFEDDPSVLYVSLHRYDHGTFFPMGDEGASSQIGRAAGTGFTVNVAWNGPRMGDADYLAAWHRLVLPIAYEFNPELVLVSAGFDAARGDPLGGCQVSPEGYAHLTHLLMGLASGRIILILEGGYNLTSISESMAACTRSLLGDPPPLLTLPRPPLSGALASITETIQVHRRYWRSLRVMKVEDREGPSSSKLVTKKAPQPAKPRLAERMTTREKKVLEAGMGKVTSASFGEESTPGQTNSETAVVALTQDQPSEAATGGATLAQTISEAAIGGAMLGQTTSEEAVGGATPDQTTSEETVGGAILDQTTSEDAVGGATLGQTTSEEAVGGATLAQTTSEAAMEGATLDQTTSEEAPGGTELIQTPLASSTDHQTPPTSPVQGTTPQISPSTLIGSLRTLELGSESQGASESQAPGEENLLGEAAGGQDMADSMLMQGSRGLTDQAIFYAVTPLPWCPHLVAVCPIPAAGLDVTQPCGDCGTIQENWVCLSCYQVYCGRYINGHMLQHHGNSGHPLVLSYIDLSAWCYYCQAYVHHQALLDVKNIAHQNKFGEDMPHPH

Histone deacetylase 1 [3] = target: T3, Histone deacetylase 1 (Homo sapiens, UniProt Q13547); experiment: Inhibition of human recombinant HDAC1 expressed in baculovirus infected insect High5 cells using Ac-Lys-Tyr-Lys(epsilon-acetyl)-AMC as substrate at 20 ug/ml by fluorescence assay
T3 sequence (Q13547 whole entry): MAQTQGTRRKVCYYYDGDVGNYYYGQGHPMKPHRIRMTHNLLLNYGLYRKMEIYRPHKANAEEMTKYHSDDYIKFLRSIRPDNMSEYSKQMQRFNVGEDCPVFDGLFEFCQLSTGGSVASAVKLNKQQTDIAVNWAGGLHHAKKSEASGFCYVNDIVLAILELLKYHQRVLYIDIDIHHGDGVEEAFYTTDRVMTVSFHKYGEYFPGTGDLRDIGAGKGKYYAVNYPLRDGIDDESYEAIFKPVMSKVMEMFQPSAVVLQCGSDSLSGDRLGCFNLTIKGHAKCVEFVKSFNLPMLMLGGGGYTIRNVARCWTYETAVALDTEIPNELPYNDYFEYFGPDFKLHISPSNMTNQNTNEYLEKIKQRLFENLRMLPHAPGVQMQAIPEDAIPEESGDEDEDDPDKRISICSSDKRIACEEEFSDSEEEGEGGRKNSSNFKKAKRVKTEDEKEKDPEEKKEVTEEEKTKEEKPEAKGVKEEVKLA

HCT-116 = experiment: Cytotoxicity against human HCT116 cells after 24 hrs by MTT assay; type: functional, cell-based; details: HCT-116, 24 h
[4] = target: T4, Protein deacetylase HDAC6 (Homo sapiens, UniProt Q9UBN7); experiment: Inhibition of human recombinant HDAC6 expressed in baculovirus infected insect High5 cells using Boc-Lys(epsilon-acetyl)-AMC as substrate by fluorescence assay
T4 sequence (Q9UBN7 whole entry): T2 sequence (whole entry)

Histone deacetylase 1 [5] = target: T3, Histone deacetylase 1; experiment: Inhibition of human recombinant HDAC1 expressed in baculovirus infected insect High5 cells using Ac-Lys-Tyr-Lys(epsilon-acetyl)-AMC as substrate by fluorescence assay
Histone deacetylase 3 [6] = target: T1, Histone deacetylase 3; experiment: Inhibition of human recombinant HDAC3 expressed in baculovirus infected insect High5 cells using Ac-Lys-Tyr-Lys(epsilon-acetyl)-AMC as substrate by fluorescence assay

T1 sequence (O15379 whole entry): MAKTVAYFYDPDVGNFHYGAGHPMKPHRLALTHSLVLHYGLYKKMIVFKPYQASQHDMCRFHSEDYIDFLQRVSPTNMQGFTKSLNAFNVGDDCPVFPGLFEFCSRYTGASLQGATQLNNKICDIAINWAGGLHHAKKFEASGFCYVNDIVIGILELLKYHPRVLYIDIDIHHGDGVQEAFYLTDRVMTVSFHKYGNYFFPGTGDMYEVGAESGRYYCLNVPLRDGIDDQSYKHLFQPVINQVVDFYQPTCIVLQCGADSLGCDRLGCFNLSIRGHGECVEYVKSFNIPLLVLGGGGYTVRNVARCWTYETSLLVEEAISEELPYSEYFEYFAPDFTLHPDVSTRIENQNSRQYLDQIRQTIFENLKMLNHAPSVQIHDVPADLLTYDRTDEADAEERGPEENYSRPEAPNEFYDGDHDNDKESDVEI

| inhibition (Histone deacetylase 3 [1]) | inhibition [2] [%] | inhibition (Histone deacetylase 1 [3]) | IC50 [4] [µM] | IC50 (Histone deacetylase 1 [5]) [µM] | IC50 (Histone deacetylase 3 [6]) [µM] | SMILES | IC50 (HCT-116) [µM] |
| --- | --- | --- | --- | --- | --- | --- | --- |
| < 50% | < 50 | < 50% | – | – | – | O=C(O)/C=C/C=C/CCCCc1ccc2c(c1)OCO2 | > 20 |
| inactive | < 50 | inactive | – | – | – | CC(C)CNC(=O)/C=C/C=C/c1ccc2c(c1)OCO2 [PIPERLONGUMININE] | > 20 |
| < 50% | < 50 | < 50% | – | – | – | O=C(O)/C=C/C=C/CC/C=C/c1ccc2c(c1)OCO2 | > 20 |
| – | – | – | 0.73 | 0.73 | 0.76 | O=C(/C=C/C=C/CC/C=C/c1ccc2c(c1)OCO2)NO | 4.4 |
| inactive | < 50 | inactive | – | – | – | O=C(O)/C=C/C=C/c1ccc2c(c1)OCO2 [PIPERIC ACID] | > 20 |
| < 50% | < 50 | < 50% | – | – | – | CC(C)CNC(=O)/C=C/C=C/CC/C=C/c1ccc2c(c1)OCO2 [RETROFRACTAMIDE A] | > 20 |
| inactive | – | inactive | 30.4 | – | – | O=C(/C=C/C=C/c1ccc2c(c1)OCO2)NO | 9.1 |
| – | – | – | 2.25 | 1.61 | 1.52 | O=C(/C=C/C=C/CCCCc1ccc2c(c1)OCO2)NO | 3.5 |
